pIC50: −log10 of the molar value.
Columns and labels:
BxPC-3 = assay: In vitro inhibition of human tumor cells, BxPC-3, MTT method; format: cell-based
Method: (§1) The cells were allowed to adhere overnight.
(§2) Adherent cells: Culture medium was aspirated and 100 μl/wells of basal culture (generally refers to medium without fetal bovine serum (FBS) and other additives) containing 0.5 mg/ml MTT were added. The cells were cultured for 3 hours. MTT-containing basal medium was aspirated and 100 μl/wells of DMSO were added to dissolve formazan.
(§3) Unstably adherent cells: Unstably adherent cells were directly added to the MTT solution to achieve the concentration of 0.5 mg/ml and cultured for 3 hours. The ternary solution in an equal volume to the system was added to the system to dissolve the formazan.
(§4) The DMSO concentration was 0.1%.

NCI-N87 = assay: In vitro inhibition of human tumor cells, NCI-N87, MTT method; format: cell-based
NCI-H460 = assay: In vitro inhibition of human tumor cells, NCI-H460, MTT method; format: cell-based
Method: as §1, §2, §3, §4

HCT116 = assay: In vitro inhibition of human tumor cells, HCT116, MTT method; format: cell-based
Method: as §1, §2, §3, §4

MDA-MB-468 = assay: In vitro inhibition of human tumor cells, MDA-MB-468, SRB method
Method: 1.1.2 Cell culture method: Cells were cultured in complete medium, 37° C., 5% CO2, saturated humidity to log growth phase (adherent cells generally attended to complete fusion), and cells were collected for subsequent experiments (adherent cells were first digested with trypsin/ethylene diamine tetraacetic acid (EDTA) to remove adherent).
1.1.3 96-well cell culture plates (hereinafter referred to as 96-well plates) were inoculated with a certain number of cells (see Table 1 for details). The cells were allowed to adhere overnight. […] Finally, the total amount of cell protein in the assay wells was determined by the SRB method, or the cell viability was determined by the MTT method:
The culture medium was aspirated from the wells and the cells were fixed for 1 hour or more by adding 10% trichloroacetic acid. Trichloroacetic acid was removed. The resultant was washed with H2O and stained with 0.4% SRB for 15 to 30 minutes. Excess SRB was removed. The resultant was washed with 1% acetic acid. The protein-bound SRB was dissolved by adding 10 mM of 100 μl Tris (trishydroxymethylaminomethane). Tests were carried out at the wavelength of 570 nm.
1.1.4 dilution and addition of β-glucuronidase: 1 to 2 mg of β-glucuronidase was weighed and dissolved in PBS to give a 2 mg/ml of stock solution. […] 80 μl of enzyme working solution was added to the enzyme-containing assay wells. The amount of β-glucuronidase was 1 μg/wells. No enzyme-containing assay wells were added to the 80 μl of complete medium.
The assay wells were charged with 20 μl of 10× compound working solution. The final volume was 200 μl per well. The DMSO concentration was 0.1%.
1.1.6 Compound inhibition activity calculation: The test included a compound test group, a compound-free positive solvent control group (PC) and a compound-free negative solvent control group (NC). […] The average inhibition rate and the standard deviation (SD) were obtained from the repeated test wells. The average inhibition rate was plotted on the basis of the compound concentration as an abscissa and distributed in the form of logarithms. The curve was fitted to the Logistic 4 parameter equation. […] The test was generally repeated to obtain 3 valid results.

SW620 = assay: In vitro inhibition of human tumor cells, SW620, SRB method; format: cell-based
Description: as §1
(§5) Trichloroacetic acid was removed. […] Excess SRB was removed.
as §4

LoVo = assay: In vitro inhibition of human tumor cells, LoVo, SRB method; format: cell-based
Description: as §1, §5, §4

[1] = No βGU (direct effects of compound on cells)

Row | Substance | pIC50 (BxPC-3; Adding βGU) | pIC50 (BxPC-3; No βGU) | pIC50 (NCI-N87; Adding βGU) | pIC50 (NCI-N87; No βGU) | pIC50 (NCI-H460; Adding βGU) | pIC50 (NCI-H460; No βGU) | pIC50 (HCT116; Adding βGU (β-glucuronidase)) | pIC50 (HCT116; [1]) | pIC50 (MDA-MB-468; Adding βGU) | pIC50 (MDA-MB-468; No βGU) | pIC50 (SW620; Adding βGU) | pIC50 (SW620; No βGU) | pIC50 (LoVo; Adding βGU) | pIC50 (LoVo; No βGU) | inhibition rate at 2 μM (NCI-N87; No βGU) | inhibition rate at 2 μM (NCI-H460; No βGU, 2 μM) [μM about 43.9%]
1 | (2S,3S,4S,5R,6S)-6-(3-((1-(6-((4′-((E)-(8-amino-1-hydroxy-5,7-disulfonicnaphthalen-2-yl)diazenyl)-3,3′-dimethoxy-[1,1′-biphenyl]-4-yl)amino)-6-oxohexyl)-1H-1,2,3-triazol-4-yl)methoxy)-4-(((S)-4-ethyl-4-hydroxy-3,14-dioxy-3,4,12,14-tetrahydro-1H-pyrano[3′,4′:6,7]indolazino[1,2-b]quinolin-9-yl)oxy)methyl)phenoxy)-3,4,5-trihydroxytetrahydro-2H-pyran-2-carboxylate trisodium [Example 31] | 7.68 | 6.29 | 7.21 | 5.75 | 7.72 | 6.27 | 8.03 | 6.47 | 7.96 | 6.48 | 8.00 | 6.66 | 7.49 | 6.16 | – | –
2 | (2S,3S,4S,5R,6S)-6-(3-((1-(6-((4′-((E)-(8-amino-1-hydroxy-5,7-disulfonicnaphthalen-2-yl)diazenyl)-[1,1′-biphenyl]-4-yl)amino)-6-oxohexyl)-1H-1,2,3-triazol-4-yl)methoxy)-4-((((S)-4-ethyl-4-hydroxy-3,14-dioxo-3,4,12,14-tetrahydro-1H-pyrano[3′,4′:6,7]indolazino[1,2-b]quinolin-9-yl)oxy)methyl)phenoxy)-3,4,5-trihydroxytetrahydro-2H-pyran-2-carboxylate trisodium [Example 29] | 7.42 | 6.04 | 7.19 | – | 7.52 | – | 7.77 | 5.87 | 7.85 | 6.10 | 8.02 | 6.46 | 7.26 | 5.92 | 2 μM about 31.0% | 2
3 | (2S,3S,4S,5R,6S)-6-(3-((1-(8-((4′-((E)-(8-amino-1-hydroxy-5,7-disulfonicnaphthalen-2-yl)diazenyl)-3,3′-dimethyl-[1,1′-biphenyl]-4-yl)amino)-8-oxooctyl)-1H-1,2,3-triazol-4-yl)methoxy)-4-((((S)-4,11-diethyl-4-hydroxy-3,14-dioxy-3,4,12,14-tetrahydro-1H-pyrano[3′,4′:6,7]indolazino[1,2-b]quinolin-9-yl)oxy)methyl)-2-methylphenoxy)-3,4,5-trihydroxytetrahydro-2H-pyran-2-carboxylate trisodium [Example 48] | 7.55 | 6.36 | 7.28 | 5.92 | 8.17 | 6.38 | 8.23 | 6.92 | 8.14 | 7.03 | 8.00 | 6.64 | 7.55 | 6.43 | – | –
4 | (2S,3S,4S,5R,6S)-6-(3-((1-(6-((4′-((E)-(8-amino-1-hydroxy-5,7-disulfonicnaphthalen-2-yl)diazenyl)-[1,1′-biphenyl]-4-yl)amino)-6-oxohexyl)-1H-1,2,3-triazol-4-yl)methoxy)-4-((((S)-4,11-diethyl-4-hydroxy-3,14-dioxo-3,4,12,14-tetrahydro-1H-pyrano[3′,4′:6,7]indolazino[1,7]quinolin-9-yl)oxy)methyl)-2-methylphenoxy)-3,4,5-trihydroxytetrahydro-2H-pyran-2-carboxylate trisodium [Example 18] | 7.77 | 5.79 | 7.54 | – | 8.12 | 6.27 | 8.19 | 6.73 | 8.26 | 6.96 | 8.17 | 6.69 | 7.72 | 6.09 | 2 μM about 49.3% | –

Reference: US20250325676A1, “CAMPTOTHECIN PRODRUG AND PHARMACEUTICAL COMPOSITION THEREOF” (TIANJIN HEMAY ONCOLOGY PHARMACEUTICAL CO., LTD, priority 2022, published 2025)
